Measurements published in PubChem BioAssay (NCI).
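Method: 48-hour compound exposure of cells in 96-well plates, five concentrations, linear interpolation of endpoints. TGI denotes the concentration required for complete inhibition of growth.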

Columns and labels:
Test in all cases: NCI tumour cell line growth inhibition, 48 h
[1] = system: SF-295 CNS
[2] = system: CAKI-1 renal
[3] = system: SN12C renal
[4] = system: SK-MEL-5 melanoma
[5] = system: MOLT-4 leukemia
[6] = system: HT29 colon
[7] = system: HL-60(TB) leukemia
[8] = system: BT-549 breast
[9] = system: HCT-116 colon
[10] = system: OVCAR-5 ovarian
[11] = system: HOP-92 NSCLC
[12] = system: TK-10 renal
[13] = system: HOP-62 NSCLC
[14] = system: NCI-H23 lung
[15] = system: SNB-75 CNS
[16] = system: UO-31 renal
[17] = system: EKVX NSCLC
[18] = system: T-47D breast
[19] = system: 786-0 renal
[20] = system: NCI/ADR-RES ovarian
[21] = system: KM12 colon
[22] = system: SF-539 CNS
[23] = system: NCI-H460 lung
[24] = system: A549 NSCLC
[25] = system: OVCAR-3 ovarian
[26] = system: OVCAR-8 ovarian
[27] = system: U251 CNS
[28] = system: HCT-15 colon
[29] = system: HCC-2998 colon
[30] = system: COLO 205 colon
[31] = system: MDA-MB-435
[32] = system: SNB-19 CNS
[33] = system: A498 renal
[34] = system: RXF 393 renal
[35] = system: ACHN renal
[36] = system: MDA-N
[37] = system: NCI-H226 lung
[38] = system: SW-620 colon
[39] = system: DU-145 prostate
[40] = system: MDA-MB-231 breast
[41] = system: LOX IMVI melanoma
[42] = system: UACC-257 melanoma
[43] = system: SK-MEL-2 melanoma
[44] = system: OVCAR-4 ovarian
[45] = system: M14 melanoma
[46] = system: IGROV1 ovarian
[47] = system: MCF7 breast
[48] = system: SF-268 CNS
[49] = system: SK-MEL-28 melanoma
[50] = system: SK-OV-3 ovarian
[51] = system: MALME-3M melanoma
[52] = system: K-562 leukemia
[53] = system: UACC-62 melanoma
[54] = system: HS 578T breast

## CC1=C(C(=O)NNC(=O)CC#N)CC(C(=O)NNC(=O)CC#N)=C(C)N1
[1]
  TGI: > 100 µM
[2]
  TGI: > 100 µM
[3]
  TGI: > 100 µM
[4]
  TGI: > 100 µM
[5]
  TGI: > 100 µM
[6]
  TGI: > 100 µM
[7]
  TGI: > 100 µM
[8]
  TGI: > 100 µM
[9]
  TGI: > 100 µM
[10]
  TGI: > 100 µM
[11]
  TGI: > 100 µM
[12]
  TGI: > 100 µM
[13]
  TGI: > 100 µM
[14]
  TGI: > 100 µM
[15]
  TGI: > 100 µM
[16]
  TGI: > 100 µM
[17]
  TGI: > 100 µM
[18]
  TGI: > 100 µM
[19]
  TGI: > 100 µM
[20]
  TGI: > 100 µM
[21]
  TGI: > 100 µM
[22]
  TGI: > 100 µM
[23]
  TGI: > 100 µM
[24]
  TGI: > 100 µM
[25]
  TGI: > 100 µM
[26]
  TGI: > 100 µM
[27]
  TGI: > 100 µM
[28]
  TGI: > 100 µM
[29]
  TGI: > 100 µM
[30]
  TGI: > 100 µM
[31]
  TGI: > 100 µM
[32]
  TGI: > 100 µM
[33]
  TGI: > 100 µM
[34]
  TGI: > 100 µM
[35]
  TGI: > 100 µM
[36]
  TGI: > 100 µM
[37]
  TGI: > 100 µM
[38]
  TGI: > 100 µM
[39]
  TGI: > 100 µM
[40]
  TGI: > 100 µM
[41]
  TGI: > 100 µM
[42]
  TGI: > 100 µM
[43]
  TGI: > 100 µM
[44]
  TGI: > 100 µM
[45]
  TGI: > 100 µM
[46]
  TGI: > 100 µM
[47]
  TGI: > 100 µM
[48]
  TGI: > 100 µM
[49]
  TGI: > 100 µM
[50]
  TGI: > 100 µM

## CCN(CC)C(=S)SS(=O)(=O)c1ccc(C)cc1
[1]
  TGI: > 100 µM
[2]
  TGI: 37.3 µM
[3]
  TGI: 49.7 µM
[4]
  TGI: 30.4 µM
[6]
  TGI: 30.2 µM
[8]
  TGI: 68.2 µM
[51]
  TGI: 41.9 µM
[10]
  TGI: > 100 µM
[12]
  TGI: > 100 µM
[13]
  TGI: 85.5 µM
[14]
  TGI: > 100 µM
[16]
  TGI: 51.2 µM
[17]
  TGI: > 100 µM
[18]
  TGI: > 100 µM
[19]
  TGI: 50.5 µM
[20]
  TGI: > 100 µM
[21]
  TGI: 30.6 µM
[22]
  TGI: 39 µM
[23]
  TGI: > 100 µM
[52]
  TGI: > 100 µM
[25]
  TGI: > 100 µM
[26]
  TGI: 40.2 µM
[27]
  TGI: 69.6 µM
[53]
  TGI: > 100 µM
[28]
  TGI: > 100 µM
[29]
  TGI: > 100 µM
[30]
  TGI: 63.7 µM
[31]
  TGI: > 100 µM
[32]
  TGI: > 100 µM
[33]
  TGI: > 100 µM
[34]
  TGI: 33.4 µM
[35]
  TGI: > 100 µM
[36]
  TGI: > 100 µM
[37]
  TGI: > 100 µM
[38]
  TGI: 45.2 µM
[39]
  TGI: > 100 µM
[40]
  TGI: > 100 µM
[41]
  TGI: 36.1 µM
[42]
  TGI: 46.3 µM
[54]
  TGI: > 100 µM
[43]
  TGI: > 100 µM
[44]
  TGI: > 100 µM
[45]
  TGI: 28.2 µM
[48]
  TGI: > 100 µM
[49]
  TGI: 39.4 µM
[50]
  TGI: > 100 µM
